Data set [1] concerns Carrageenan-induced rat paw edema. In words: Inhibition of Carrageenan-induced rat paw edema. Type of data set: in vivo, Fisher 344 rats. As to conditions: 0.01 mmol/kg intraperitoneally; 3.5 h after Carrageenan. The procedure: Inhibition of the Carrageenan-induced edema. Edema was induced in the right hind paw of Fisher 344 rats (150-200 g) by the intradermal injection of 0.1 mL 2% Carrageenan in water. Both sexes were used. Females pregnant were excluded. Each group was composed of 6 animals. The experiment was performed twice for validation. The animals, which have been bred in our laboratory, were housed under standard conditions and received a diet of commercial food pellets and water ad libitum during the maintenance, but they were entirely fasted during the experiment period. Nitrone 23 as well as of the standard drug indomethacin in 0.01 mmol/kg body weight, were diluted in water with few drops of Tween 80 and ground in a mortar before use and they were given intraperitoneally simultaneously with the Carrageenan injection. The rats were euthanized 3.5 h after Carrageenan administration. The difference between the weight of the injected and uninjected paws was calculated for each animal. The change in paw weight was compared with that in control animals (treated with water/or Tween-water) and expressed as a percent inhibition of the edema % ICPE values (Table 2). Values % ICPE are the mean from two different experiments (n=6 animals each time) with a standard error of the mean less than 10%.

Data set [2] has as its system primary neuronal cultures from rat cerebral cortex. Briefly: Neuroprotection (MTT cell viability) in primary neuronal cultures exposed to oxygen-glucose deprivation (OGD). The format is cell-based. The conditions noted are these: Rattus norvegicus, 24 h recovery after 4 h OGD, R24 h = 0%, control = 100%. The procedure: Primary neuronal cultures. Primary neuronal cultures from rat cerebral cortex were prepared as previously described.^54 All procedures associated with animal experiments were approved by the Ethics Committee of the Hospital Ramón y Cajal, Madrid (Spain). Cell suspensions from cerebral cortex were prepared from 16- to 17-day-old Sprague-Dawley rat embryos. Living cells in cell suspension were counted by trypan blue exclusion method. Cells were seeded on plastic multidishes precoated with 0.05 mg/mL poly-D-lysine at a density of 2.5×10^5 cells/cm^2 and were kept at 37° C. in a 6.5% CO2 atmosphere in high glucose Dulbecco's medium supplemented with 15% heat-inactivated (56° C. for 30 min) foetal calf serum. After 24 h, cultured cells were […] to induce experimental ischemia.^23 Cultured cells were washed and placed in glucose-free Dulbecco's medium (bubbled with 95% N2/5% CO2 for 30 min), and maintained in a humidified hypoxia chamber equipped with an oxygen and carbon dioxide control unit (Biospherix) at 6.5% CO2 and <0.1% O2 in N2 at 37° C. Cells were exposed to OGD for a period of 4 h (OGD 4 h). At the end of the OGD period, culture medium was replaced with oxygenated serum-free medium, and cells were placed and maintained in the normoxic incubator for 24 h to recovery (R24 h). In the neuroprotection experiments, the compounds were added at the onset of recovery period. Control cultures in Dulbecco's medium containing glucose were kept in the normoxic incubator for the same period of time as the OGD, and then medium (Dulbecco's/Ham's F12, 1:1 [vol/vol], 5 mg/mL glucose, 2 mM L-glutamine, and 1 mM sodium pyruvate, and supplemented with 100 μg/mL transferrin, 100 μM putrescine, 20 nM progesterone, 30 nM sodium selenite and 5 μg/mL insulin). Here, 6-7 day old cultured neurons were used in the experiments, and contained 90% β-III-tubulin-positive mature neurons, as described previously.^55
Exposure of cell cultures to oxygen-glucose deprivation and treatments. Primary neuronal cultures were exposed to […]. Control experiments included the same amounts of vehicle (final concentration<0.5% ethanol). Nitrone 2 was used as reference compound for neuroprotection. The experimental procedures were blindly performed, assigning a random order to each assayed nitrone. Nitrones were analyzed independently four-eight times with different batch of cultures and each experiment was run in quadruplicate.
Cell viability assay. Cell viability was evaluated by quantification of living, metabolically active cells, as determined by a colorimetric assay using the photometric reduction of 3-(4,5-dimethylthiazol-2-yl)-2,5-diphenyl tetrazolium bromide (MTT) (Roche) to a blue formazan product. The assay of living, metabolically active cells was performed by incubating with 0.2 mg/mL MTT in the culture medium for 1.5 h in an incubator at 37° C. in a 6.5% CO2 atm. After the incubation period, cells were lysed with an equal volume of 10 mM HCl and 10% SDS overnight. Values were quantified by absorbance (test 595 nm, reference 690 nm). Decreased MTT activity denotes impairment of mitochondrial function and is considered to be an index of cell damage. Primary neuronal cultures were collected at times indicated for MTT determination.
Neuroprotection of compounds was evaluated by a cell viability assay. The neuroprotective effect of the compounds 5-32 was evaluated on primary neuronal cultures from cerebral cortex subjected to oxygen-glucose deprivation (OGD) to induce experimental ischemia. Afterwards, cultured neurons were placed and kept in normoxic and normoglycemic conditions to recovery. […]

Data set [3] in a line: Hydroxyl radical scavenging (competition with DMSO). The format is biochemical. The conditions noted are these: tested at 100 μM. The procedure: Hydroxyl Radicals Scavenging Activity.^32 The hydroxyl radicals were produced by the Fe^3+/ascorbic acid system. EDTA (0.1 mM), Fe^3+ (167 μM), DMSO (33 mM) in phosphate buffer (50 mM, pH 7.4), the tested compounds (0.1 mM) and ascorbic acid (10 mM) were mixed in test tubes. The solutions were incubated at 37° C. for 30 min. The reaction was stopped by trichloroacetic acid (17% w/v) (Table 1) and the % scavenging activity of the tested compounds for hydroxyl radicals was given.
3.2. Competition of QNs with DMSO for hydroxyl radicals. Among the ROS, the hydroxyl (·OH) free radical is possibly the most toxic, as it easily reacts with biological important molecules such as DNA, lipids or carbohydrates. Polyunsaturated fatty acids are found in high concentrations in the CNS, and are particularly vulnerable to free radicals attack. Thus, we tried to test the ability of our compound to scavenge hydroxyl radicals. […] Antioxidants with lipophilic character are needed to act as radical scavengers or as chain-breaking antioxidants in biological membranes.

Data set [4] can be described thus: Inhibition of linoleic acid peroxidation (AAPH, ILPO). The format is biochemical. As to conditions: tested at 100 μM. The procedure:
Inhibition of Linoleic Acid Peroxidation.^32 For initiating the free radical, 2,2′-azobis(2-amidinopropane) dihydrochloride (AAPH) is used. The final solution in the UV cuvette consisted of ten microliters of the 16 mM linoleate sodium dispersion 0.93 mL of 0.05 M phosphate buffer, pH 7.4, thermostatted at 37° C. 50 μL of 40 mM AAPH solution was added as a free radical initiator at 37° C. under air and 10 μL of the tested compounds. The oxidation of linoleic acid sodium salt results a conjugated diene hydroperoxide. The reaction is monitored at 234 nm (Table 1).
3.3. Anti-lipid peroxidation activity of QNs. The water-soluble azo compound 2,2′-azobis(2-amidinopropane) dihydrochloride (AAPH) has been extensively used as a clean and controllable source of thermally produced alkyl peroxyl free radicals through spontaneous thermal decomposition. […] In the AAPH assay to determine the inhibition of the lipid peroxidation (ILPO), the highly reactive alkylperoxyl radicals are intercepted mainly by a hydrogen atom transfer from the antioxidant. As shown, QN23 presented limited value, where QNs 19, 22 and 24 presented very high values (Table 3).

Data set [5] is described as follows: ABTS radical cation decolorization assay. The format is biochemical. As to conditions: tested at 100 μM. The procedure: ABTS^⋅+-decolorization assay in ethanolic solution for antioxidant activity.^32,35 ABTS is dissolved in water to a 2 mM concentration. ABTS radical cation (ABTS^⋅+) is produced by reacting the ABTS stock solution with 0.17 mM potassium persulfate in phosphate buffer (pH 7.4, 20 mM) and allowing the mixture to stand in the dark at room temperature for 12-16 h before use. For steady state measurements, […] ABTS^⋅+ was used. For the present study, the […] ABTS^⋅ solution (200 μL) was diluted with ethanol (790 μL) to an absorbance of 0.70 at 734 nm, equilibrated at room temperature, mixed with 10 μL of the tested compounds (stock solutions 10 mM) and the absorbance reading was taken at room temperature 1 min after the initial mixing. Trolox was used as a standard.
3.4. ABTS^⋅+ antioxidant activity of QNs. The ABTS^⋅+ radical cation, derived from the oxidation of 2,2′-azino-bis(3-ethylbenzothiazoline-6-sulphonic acid) (ABTS) by potassium persulfate, is a green-blue stable chromophore, which can be analyzed in the course of a decolorization assay. The addition of electron-donor antioxidants leads to ABTS^⋅+ reduction. The chemistry taking place involves the direct generation of the ABTS^⋅+ with no involvement of an intermediary radical. […] Again, and as shown, QN23 presented limited activity beside with 19, although the others nitrones had no activity (Table 3).

The nature of data set [6]: Interaction with the stable radical DPPH. Type of data set: biochemical. As to conditions: tested at 100 μM; reducing activity. The procedure:
Interaction of the nitrone with the Stable Radical 1,1-diphenyl-picrylhydrazyl (DPPH) To a solution of DPPH in absolute ethanol the appropriate volume of the compounds (0.1 mM final concentrations) dissolved in DMSO was added. The absorbance was recorded at 517 nm after 20 and 60 min at room temperature (Table 1).
3.1. Antioxidant activity of QNs using radical DPPH. […] This purple colour generally disappears in the presence of an antioxidant due to the reduction of the DPPH radical by single electron transfer (SET) from the antioxidant converted it to colourless/bleached product. […] In this assay, we measured the initial absorbance of DPPH and the absorbance once the potential antioxidant was added. The antioxidant activity was expressed as the percentage of reducing activity.
A general note: Loss of DPPH colour is used to gauge radical scavenging.

Where “and” joins values, the source holds several entries; their conditions need not be identical. Equal entries are not always repeated.

Consider `COc1ccc2c(c1)c(CC(=O)O)c(C)n2C(=O)c1ccc(Cl)cc1` [Indomethacin, indomethacin, reference compound], for which the ICPE % in data set [1] was 47 ± 1.0 %.

For `Cc1ccc2c(c1)cc(/C=[N+](\[O-])Cc1ccccc1)c(Cl)[n+]2[O-]` [Compound 29, (Z)—N-Benzyl-1-(2-chloro-6-methyl-1-oxidoquinolin-3-yl)methanimine oxide], the melting point fell in the range of 163 to 165 °C. In data set [2], this molecule registered a viability at 0.3 µM of 8.28 ± 0.51%, a viability at 1 µM of less than 0%, a viability at 10 µM of less than 0% and a viability at 100 µM of less than 0%.

As to `Cc1c(C)c2c(c(C)c1O)CCC(C)(C(=O)O)O2` (stereo not shown) [Trolox, reference compound], in data set [3], the “*OH (%)” value turned out to be 73%. Also, the “ILPO (%) / AAPH (%)” value in data set [4] was 63% and 88%; in data set [4] (listed as trolox) it was 88%. Moreover, the “ABTS*+ (%)” value in data set [5] is listed as 91%.

Take `CC(Cc1ccc(O)c(O)c1)C(C)Cc1ccc(O)c(O)c1` (stereo not shown) [NDGA, nordihydroguaiaretic acid, reference compound]: the “DPPH (%)” value in data set [6] is given as 93%.

`Cc1ccc2c(c1)cc(/C=[N+](\[O-])C(C)(C)C)c(Cl)[n+]2[O-]` [Compound 30, (Z)—N-tert-Butyl-1-(2-chloro-6-methyl-1-oxidoquinolin-3-yl)methanimine oxide]: the melting point was 211 to 214 °C. In data set [2], this molecule registered a viability at 0.3 µM of 13 ± 0.47%, a viability at 1 µM of 37.5 ± 1.94%, a viability at 10 µM of less than 0% and a viability at 100 µM of less than 0%.

What is called viability is a read-out of living cells in per cent, often relative to untreated cells. The low end stands for more harm to the cells, the high end for less harm to the cells. The melting point is the temperature, or range, at which the solid turns liquid.

For the origin of these results see patent US12102631B2, “Quinolylnitrones for the treatment and prevention of a cerebral stroke or ischaemia” (ISQUAEMIA BIOTECH, S.L., priority 2018, dated 2024).
